Source: patent US5171573A, “4^G -alpha-D-glucopyranosyl rutin, and its preparation and uses” (Kabushiki Kaisha Hayashibara Seibutsu Kagaku Kenkyujo, priority 1989, dated 1992)
Values after ≈ are worked out from the molar mass of the structure shown.

Experiments:
[1] = Solubility in solvents / water-solubility; type: physicochemical
Protocol: Soluble in methanol and ethanol. […] One ml water dissolves about 4.3 g of the present substance at 25° C. Only 1 g rutin (control) dissolves in 8 liters of water.

[2] = Antioxidant activity on powdered peanut butter (peroxide value during standing at 35° C.)
Protocol: 4^G -Alpha-D-glucopyranosyl rutin was tested for antioxidant activity on powdered peanut butter which is used an example of fatty food substances highly susceptive to oxidation. […] The mixture was placed in a tray, sealed, solidified by allowing it to stand at 35° C. for 1 day, and prepared into a powder which was then placed in aluminum cups and allowed to stand in a 35° C. incubator without sealing. During the standing, the contents in the aluminum cups were periodically checked for their peroxide value. […] As the control, a group with no antioxidant was tested similarly as above.

[3] = Stability in aqueous solution; type: physicochemical; settings: pH 3-7, aqueous solution
[4] = system: alpha-glucosidase derived from pig liver; assay: Hydrolysis using an alpha-glucosidase derived from pig liver; type: biochemical
Source text: ii) Hydrolysis using an alpha-glucosidase derived from pig liver yields 1 mole of glucose per mole of rutin.

[5] = Physical properties (hygroscopicity, acidity in aqueous solution); type: physicochemical
[6] = system: 7-week old dd mice; assay: Acute toxicity, oral, 7-week old dd mice
[7] = ambient temperature, prior art; cited from earlier work

Compound: C[C@@H]1O[C@@H](OC[C@H]2O[C@@H](Oc3c(-c4ccc(O)c(O)c4)oc4cc(O)cc(O)c4c3=O)[C@H](O)[C@@H](O)[C@@H]2O[C@H]2O[C@H](CO)[C@@H](O)[C@H](O)[C@H]2O)[C@H](O)[C@H](O)[C@H]1O [4^G -alpha-D-glucopyranosyl rutin]
- Solubility in solvent: 0.1N hydrochloric acid [1]: Readily soluble
- Solubility in solvent: 0.1N sodium hydroxide [1]: Readily soluble
- Solubility in solvent: acetic acid [1]: Readily soluble
- Solubility in solvent: chloroform [1]: Hardly soluble
- Solubility in solvent: ethanol [1]: Soluble
- Solubility in solvent: ethyl acetate [1]: Hardly soluble
- Solubility in solvent: methanol [1]: Soluble
- Solubility in solvent: water [1]: Readily soluble
- solubility improved as compared to that of rutin [1]: about thirty thousand
- solubility ([1]; water): ~4300 mg/mL (≈ 5570 mM)
- peroxide value ([2]; 0 days): 1.78 meq/kg
- peroxide value ([2]; 8 days): 5.53 meq/kg
- peroxide value ([2]; 27 days): 14.6 meq/kg
- peroxide value ([2]; 42 days): 23.4 meq/kg
- peroxide value ([2]; 55 days): 32.5 meq/kg
- Stability in aqueous solution [3]: Superiorily stable
- glucose yielded on enzymatic hydrolysis [4]: 1 mole of glucose per mole of rutin
- acidity in aqueous solution ([5]; aqueous solution): Neutral or slightly acidic
- hygroscopicity / deliquescence ([5]; powder, purity about 99.8%): Non-hygroscopic and non-deliquescent
- acute toxicity, in words ([6]; 7-week old dd mice, powder of Example A-3): extremely low in toxicity
- acute toxicity: dose up to which no mouse died ([6]; 7-week old dd mice, powder of Example A-3, higher dose was difficult): > 5 g
- acute toxicity, in words ([6]; dd mice, high-purity powder of Example A-4, same result as Example A-3 powder): extremely low

Compound: C[C@@H]1O[C@@H](OC[C@H]2O[C@@H](Oc3c(-c4ccc(O)c(O)c4)oc4cc(O)cc(O)c4c3=O)[C@H](O)[C@@H](O)[C@@H]2O)[C@H](O)[C@H](O)[C@H]1O [rutin]
- Solubility in 8 liters of water ([1]; 8 liters of water (control)): 1 g
- water-solubility [7]: about 0.01 w/v %
